Assay results published in patent US7118895B2, “Process for producing aglycon by using diglycosidase and flavor-improved food containing the aglycon and converting agent to be used in the process” (Amano Enzyme Inc., priority 2000, dated 2006).

System: Crude diglycosidase
Test: Examination of pH in the conversion into isoflavone aglycons by diglycosidase using soybean materials
Assay type: biochemical, Penicillium multicolor IAM7153
Set-up: Decomposition efficiency of genistin family in soymilk / Decomposition efficiency of genistin family in defatted soybean / Decomposition efficiency of daidzin family in defatted soybean: concentration or dose not given beside the values
Details: for Decomposition efficiency of genistin family in roasted soy flour: 55° C.
Procedure: A substrate solution of 450 μL was prepared by suspending 50 mg of each soybean material (roasted soy flour (manufactured by Fuji Shokuryo K.K.), soymilk (manufactured by Gitoh Shokuhin K.K.), defatted soybean (manufactured by Fuji Seiyu K.K.), concentrated soybean protein (manufactured by Fuji Seiyu K.K.)), and adjusting the pH to 2 to 11 with hydrochloric acid or sodium hydroxide. Each enzyme solution of pH 2–11 wherein diglycosidase activity of crude diglycosidase was adjusted to 1.88 AU/mL was added thereto in an amount of 50 μL and the whole was reacted at 55° C. at the total volume of 500 μL. To the reaction mixture was added 700 μL of ethanol after 0, 1, 3, and 6 hours of the reaction. After stirring and ultrasonication, the mixture was subjected to centrifugal separation at 15,000 rpm and 4° C. for 10 minutes. The supernatant was filtered through a filter and the existence of isoflavone glycosides and aglycon isoflavones contained in the reaction mixture was detected by HLPC (Tables 15 to 26).

[1] = pH6.6, heat treatment of enzyme: no, reaction time 0 h
[2] = pH6.6, heat treatment of enzyme: no, reaction time 1 h
[3] = pH6.6, heat treatment of enzyme: no, reaction time 3 h
[4] = pH6.6, heat treatment of enzyme: no, reaction time 6 h
[5] = pH6.6, heat treatment of enzyme: yes, reaction time 6 h

CC(=O)OC[C@H]1O[C@@H](Oc2cc(O)c3c(=O)c(-c4ccc(O)cc4)coc3c2)[C@H](O)[C@@H](O)[C@@H]1O [acetylgenistin, 6″-O-acetylgenistin]
Decomposition efficiency of genistin family in roasted soy flour (pH5, heat treatment of enzyme no, reaction time 0 h): 45.4 | Decomposition efficiency of genistin family in roasted soy flour (pH5, heat treatment of enzyme no, reaction time 1 h): 39.9 | Decomposition efficiency of genistin family in roasted soy flour (pH5, heat treatment of enzyme no, reaction time 3 h): 26.9 | Decomposition efficiency of genistin family in roasted soy flour (pH5, heat treatment of enzyme no, reaction time 6 h): 17.6 | Decomposition efficiency of genistin family in roasted soy flour (pH5, heat treatment of enzyme yes, reaction time 6 h): 42.0 | Decomposition efficiency of genistin family in concentrated soybean protein (pH5.1, heat treatment of enzyme: no, reaction time 0 h): 43.1% | Decomposition efficiency of genistin family in concentrated soybean protein (pH5.1, heat treatment of enzyme: no, reaction time 1 h): 45.2% | Decomposition efficiency of genistin family in concentrated soybean protein (pH5.1, heat treatment of enzyme: no, reaction time 3 h): 40.2% | Decomposition efficiency of genistin family in concentrated soybean protein (pH5.1, heat treatment of enzyme: no, reaction time 6 h): 35.6% | Decomposition efficiency of genistin family in concentrated soybean protein (pH5.1, heat treatment of enzyme: yes, reaction time 6 h): 42.4% | Decomposition efficiency of genistin family in defatted soybean (pH5.4, heat treatment of enzyme: no, reaction time 0 h): 1.8% | Decomposition efficiency of genistin family in defatted soybean (pH5.4, heat treatment of enzyme: no, reaction time 1 h): 0.5% | Decomposition efficiency of genistin family in defatted soybean (pH5.4, heat treatment of enzyme: no, reaction time 3 h): not detected | Decomposition efficiency of genistin family in defatted soybean (pH5.4, heat treatment of enzyme: no, reaction time 6 h): not detected | Decomposition efficiency of genistin family in defatted soybean (pH5.4, heat treatment of enzyme: yes, reaction time 6 h): not detected | Decomposition efficiency of genistin family in soymilk (pH6.2, heat treatment of enzyme: no, reaction time 0 h): 0.5% | Decomposition efficiency of genistin family in soymilk (pH6.2, heat treatment of enzyme: no, reaction time 1 h): not detected | Decomposition efficiency of genistin family in soymilk (pH6.2, heat treatment of enzyme: no, reaction time 3 h): not detected | Decomposition efficiency of genistin family in soymilk (pH6.2, heat treatment of enzyme: no, reaction time 6 h): not detected | Decomposition efficiency of genistin family in soymilk (pH6.2, heat treatment of enzyme: yes, reaction time 6 h): 0.6% | Decomposition efficiency of genistin family in roasted soy flour (pH6.5, heat treatment of enzyme no, reaction time 0 h): 45.8 | Decomposition efficiency of genistin family in roasted soy flour (pH6.5, heat treatment of enzyme no, reaction time 1 h): 45.3 | Decomposition efficiency of genistin family in roasted soy flour (pH6.5, heat treatment of enzyme no, reaction time 3 h): 38.8 | Decomposition efficiency of genistin family in roasted soy flour (pH6.5, heat treatment of enzyme no, reaction time 6 h): 34.0 | Decomposition efficiency of genistin family in roasted soy flour (pH6.5, heat treatment of enzyme yes, reaction time 6 h): 39.2 | Decomposition efficiency of genistin family in concentrated soybean protein [1]: 43.0% | Decomposition efficiency of genistin family in defatted soybean [1]: 1.7% | Decomposition efficiency of genistin family in concentrated soybean protein [2]: 43.6% | Decomposition efficiency of genistin family in defatted soybean [2]: 0.6% | Decomposition efficiency of genistin family in concentrated soybean protein [3]: 42.8% | Decomposition efficiency of genistin family in defatted soybean [3]: 0.3% | Decomposition efficiency of genistin family in concentrated soybean protein [4]: 41.0% | Decomposition efficiency of genistin family in defatted soybean [4]: 0.2% | Decomposition efficiency of genistin family in concentrated soybean protein [5]: 40.6% | Decomposition efficiency of genistin family in defatted soybean [5]: 0.2% | Decomposition efficiency of genistin family in soymilk (pH7.2, heat treatment of enzyme: no, reaction time 0 h): 0.7% | Decomposition efficiency of genistin family in soymilk (pH7.2, heat treatment of enzyme: no, reaction time 1 h): not detected | Decomposition efficiency of genistin family in soymilk (pH7.2, heat treatment of enzyme: no, reaction time 3 h): not detected | Decomposition efficiency of genistin family in soymilk (pH7.2, heat treatment of enzyme: no, reaction time 6 h): not detected | Decomposition efficiency of genistin family in soymilk (pH7.2, heat treatment of enzyme: yes, reaction time 6 h): 0.7% | Decomposition efficiency of genistin family in defatted soybean (pH7.8, heat treatment of enzyme: no, reaction time 0 h): 1.6% | Decomposition efficiency of genistin family in defatted soybean (pH7.8, heat treatment of enzyme: no, reaction time 1 h): 1.0% | Decomposition efficiency of genistin family in defatted soybean (pH7.8, heat treatment of enzyme: no, reaction time 3 h): 0.8% | Decomposition efficiency of genistin family in defatted soybean (pH7.8, heat treatment of enzyme: no, reaction time 6 h): 0.7% | Decomposition efficiency of genistin family in defatted soybean (pH7.8, heat treatment of enzyme: yes, reaction time 6 h): 0.6% | Decomposition efficiency of genistin family in roasted soy flour (pH8.5, heat treatment of enzyme no, reaction time 0 h): 39.5 | Decomposition efficiency of genistin family in roasted soy flour (pH8.5, heat treatment of enzyme no, reaction time 1 h): 39.5 | Decomposition efficiency of genistin family in roasted soy flour (pH8.5, heat treatment of enzyme no, reaction time 3 h): 39.2 | Decomposition efficiency of genistin family in roasted soy flour (pH8.5, heat treatment of enzyme no, reaction time 6 h): 37.3 | Decomposition efficiency of genistin family in roasted soy flour (pH8.5, heat treatment of enzyme yes, reaction time 6 h): 35.2 | Decomposition efficiency of genistin family in concentrated soybean protein (pH8.6, heat treatment of enzyme: no, reaction time 0 h): 39.7% | Decomposition efficiency of genistin family in concentrated soybean protein (pH8.6, heat treatment of enzyme: no, reaction time 1 h): 38.8% | Decomposition efficiency of genistin family in concentrated soybean protein (pH8.6, heat treatment of enzyme: no, reaction time 3 h): 39.0% | Decomposition efficiency of genistin family in concentrated soybean protein (pH8.6, heat treatment of enzyme: no, reaction time 6 h): 38.5% | Decomposition efficiency of genistin family in concentrated soybean protein (pH8.6, heat treatment of enzyme: yes, reaction time 6 h): 37.6% | Decomposition efficiency of genistin family in soymilk (pH11.6, heat treatment of enzyme: no, reaction time 0 h): 0.5% | Decomposition efficiency of genistin family in soymilk (pH11.6, heat treatment of enzyme: no, reaction time 1 h): not detected | Decomposition efficiency of genistin family in soymilk (pH11.6, heat treatment of enzyme: no, reaction time 3 h): not detected | Decomposition efficiency of genistin family in soymilk (pH11.6, heat treatment of enzyme: no, reaction time 6 h): not detected | Decomposition efficiency of genistin family in soymilk (pH11.6, heat treatment of enzyme: yes, reaction time 6 h): 0.9%
